The supplement of paper PMC4862054

Columns and labels:
Settings in all cases: incubation time: 72 h
HCC1599 [1] = assay: normalised response (% of control), CellTox Green; higher = less cell death (100 = DMSO, 0 = benzethonium chloride kill control)
How it was run: (§1)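 CellTox Green fluorescence (485/520 nm) and, after 10 min at room temperature, CellTiter-Glo luminescence were read from breast cancer cell lines incubated 72 h in 384-well plates. Cells were seeded as 20 µl suspension onto compound at 5 concentrations in 10-fold steps over a 10,000-fold range chosen per compound. Each plate was normalised to 0.1 % DMSO (100) and a positive kill control (0). Values are normalised signals, one per concentration.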

BT-549 [2] = assay: as above
How it was run: as §1

MCF-10A [3] = assay: as above
How it was run: as §1

Hs578T [4] = assay: as above
How it was run: as §1

DU-4475 [5] = assay: as above
How it was run: as §1

MDA-MB-436 [6] = assay: as above
How it was run: as §1

CAL-51 [7] = assay: as above
How it was run: as §1

CAL-120 [8] = assay: as above
How it was run: as §1

HDQ-P1 [9] = assay: as above
How it was run: as §1

MFM-223 [10] = assay: as above
How it was run: as §1

CAL-148 [11] = assay: as above
How it was run: as §1

CAL-85-1 [12] = assay: as above
How it was run: as §1

HCC1143 [13] = assay: as above
How it was run: as §1

BT-474 [14] = assay: as above
How it was run: as §1

MDA-MB-453 [15] = assay: as above
How it was run: as §1

MDA-MB-468 [16] = assay: as above
How it was run: as §1

HCC1937 [17] = assay: as above
How it was run: as §1

HCC1599 [18] = assay: normalised response (% of control), CellTiter-Glo; higher = more viable cells (100 = DMSO, 0 = benzethonium chloride kill control)
Method: (§2)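 DSRT, 72 h incubation, CellTox Green / CellTiter-Glo readout. Signal is normalised to DMSO and benzethonium chloride controls. Value is the normalised response at dose 3.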

BT-549 [19] = assay: as above
Method: as §2

MCF-10A [20] = assay: as above
Method: as §2

Hs578T [21] = assay: as above
Method: as §2

DU-4475 [22] = assay: as above
Method: as §2

MDA-MB-436 [23] = assay: as above
Method: as §2

CAL-51 [24] = assay: as above
Method: as §2

CAL-120 [25] = assay: as above
Method: as §2

HDQ-P1 [26] = assay: as above
Method: as §2

MFM-223 [27] = assay: as above
Method: as §2

CAL-148 [28] = assay: as above
Method: as §2

CAL-85-1 [29] = assay: as above
Method: as §2

HCC1143 [30] = assay: as above
Method: as §2

BT-474 [31] = assay: as above
Method: as §2

MDA-MB-453 [32] = assay: as above
Method: as §2

MDA-MB-468 [33] = assay: as above
Method: as §2

MDA-MB-231 [34] = assay: as above
Method: as §2

SK-BR-3 = assay: as above
Method: as §2

HCC1937 [35] = assay: as above
Method: as §2

MDA-MB-231 [36] = assay: normalised response (% of control), CellTox Green; higher = less cell death (100 = DMSO, 0 = benzethonium chloride kill control)
How it was run: as §1

| Compound | normalised response (HCC1599 [1]) | normalised response (BT-549 [2]) | normalised response (MCF-10A [3]) | normalised response (Hs578T [4]) | normalised response (DU-4475 [5]) | normalised response (MDA-MB-436 [6]) | normalised response (CAL-51 [7]) | normalised response (CAL-120 [8]) | normalised response (HDQ-P1 [9]) | normalised response (MFM-223 [10]) | normalised response (CAL-148 [11]) | normalised response (CAL-85-1 [12]) | normalised response (HCC1143 [13]) | normalised response (BT-474 [14]) | normalised response (MDA-MB-453 [15]) | normalised response (MDA-MB-468 [16]) | normalised response (HCC1937 [17]) | normalised response (HCC1599 [18]) | normalised response (BT-549 [19]) | normalised response (MCF-10A [20]) | normalised response (Hs578T [21]) | normalised response (DU-4475 [22]) | normalised response (MDA-MB-436 [23]) | normalised response (CAL-51 [24]) | normalised response (CAL-120 [25]) | normalised response (HDQ-P1 [26]) | normalised response (MFM-223 [27]) | normalised response (CAL-148 [28]) | normalised response (CAL-85-1 [29]) | normalised response (HCC1143 [30]) | normalised response (BT-474 [31]) | normalised response (MDA-MB-453 [32]) | normalised response (MDA-MB-468 [33]) | normalised response (MDA-MB-231 [34]) | normalised response (SK-BR-3) | normalised response (HCC1937 [35]) | normalised response (MDA-MB-231 [36]) |
| --- | --- | --- | --- | --- | --- | --- | --- | --- | --- | --- | --- | --- | --- | --- | --- | --- | --- | --- | --- | --- | --- | --- | --- | --- | --- | --- | --- | --- | --- | --- | --- | --- | --- | --- | --- | --- | --- |
| C#Cc1cccc(Nc2ncnc3cc(OCCOC)c(OCCOC)cc23)c1 [Erlotinib] (100 nM) | 104% | 93% | 85.9% | 75.5% | 102% | 98.9% | 111% | 95.6% | 108% | 103% | 103% | 86.2% | 114% | 101% | 106% | 118% | 107% | 102% | 105% | 65% | 100% | 105% | 102% | 105% | 98.1% | 74% | 103% | 115% | 100% | 102% | 98.3% | 109% | 90.8% | 118% | 112% | 99% |  |
| CCC1(c2ccc(N)cc2)CCC(=O)NC1=O (stereo not given) [Aminoglutethimide] (100 nM) | 104% | 98% | 99.1% | 103% | 98.3% | 109% | 113% | 98.6% | 88.9% | 92.2% |  | 106% | 96.9% | 101% | 103% | 119% | 102% | 90.5% | 108% | 94.1% | 98.3% | 100% | 98.3% | 117% | 108% | 98.5% | 102% | 105% | 107% | 95.3% | 99.1% | 103% | 100% | 104% | 99.3% | 94.7% | 98% |
| CCC(C)(C)C(=O)O[C@H]1C[C@@H](C)C=C2C=C[C@H](C)[C@H](CC[C@@H]3C[C@@H](O)CC(=O)O3)[C@H]21 [Simvastatin] (100 nM) | 95.1% | 59.3% | 107% | 75.5% | 105% |  | 113% |  | 78.8% | 102% | 99.7% |  | 91% | 97.3% | 77.8% | 94.2% | 68.8% | 89.2% | 94.5% | 111% | 102% | 98.4% | 99.7% | 104% | 100% | 102% | 105% | 107% | 98.9% | 105% | 97.5% | 95.5% | 93.7% | 98.6% | 105% | 99% | 115% |
| Oc1nc(-c2ccc(C(F)(F)F)cc2)nc2c1CSCC2 [XAV-939] (100 nM) | 101% | 98.8% | 95.1% | 109% | 102% | 102% | 90.2% | 101% |  | 96.6% | 99.6% | 111% | 108% | 101% | 105% | 130% | 104% | 92.3% | 103% | 98.5% | 101% | 99.8% | 102% | 77.1% | 96.3% | 106% | 97% | 101% | 99.6% | 104% | 93.2% | 98.2% | 92% | 90.9% | 99.1% | 92.9% | 100% |
| C=C(c1ccc(C(=O)O)cc1)c1cc2c(cc1C)C(C)(C)CCC2(C)C [Bexarotene] (100 nM) | 105% | 92.4% | 104% | 98.7% | 98.8% | 94.1% | 96.9% | 99.7% | 108% | 81.8% | 95.2% | 95.8% | 97.9% | 97% | 96.1% | 108% | 105% | 90.8% | 105% | 91.8% | 95.9% | 104% | 98% | 80.1% | 104% | 104% | 108% | 101% | 105% | 104% | 109% | 117% | 104% | 101% | 88.6% | 100% |  |
| O=C(CCCCCCC(=O)Nc1ccc([C@H]2O[C@@H](CSc3nc(-c4ccccc4)c(-c4ccccc4)o3)C[C@@H](c3ccc(CO)cc3)O2)cc1)NO [Tubacin] (100 nM) | 102% | 102% | 104% | 98.1% | 100% |  | 101% | 105% | 87.9% | 103% | 98.1% | 99.6% | 99% | 102% | 99.4% | 82.4% | 83.3% | 85.2% | 96.7% | 106% | 94.6% | 102% | 96.8% | 89.2% | 112% | 88.2% | 97% | 106% | 97.2% | 96% | 94.8% | 96.1% | 95.3% | 97% | 97.1% | 92.8% | 110% |
| CS(=O)(=O)c1ccc(C2=C(c3ccccc3)C(=O)OC2)cc1 [Rofecoxib] (100 nM) | 101% | 95.7% | 88.5% | 103% | 108% | 104% | 111% | 104% |  | 88.2% | 101% | 107% | 98.7% | 104% | 106% | 118% | 68.7% | 99% | 106% | 114% | 109% | 102% | 105% | 105% | 104% | 98.7% | 104% | 109% | 102% | 108% | 101% | 108% | 104% | 106% | 110% | 95.8% | 117% |
